pKi: −log10 of the molar value. Positions of bridges follow the written chain, without caps; N, C: chain ends. No end group written: not given here.
Experiments:
Assay in all cases: Affinity (Ki,app) for protease
Type in all cases: biochemical
human plasmin = target: T1, human plasmin (Homo sapiens, UniProt P00747)
T1 construct: human plasmin

human urine kallikrein = target: T2, human urine kallikrein (Homo sapiens, UniProt P06870)
T2 construct: from tissue; host or cells: urine (from the name only)
T2 sequence (P06870 25-262): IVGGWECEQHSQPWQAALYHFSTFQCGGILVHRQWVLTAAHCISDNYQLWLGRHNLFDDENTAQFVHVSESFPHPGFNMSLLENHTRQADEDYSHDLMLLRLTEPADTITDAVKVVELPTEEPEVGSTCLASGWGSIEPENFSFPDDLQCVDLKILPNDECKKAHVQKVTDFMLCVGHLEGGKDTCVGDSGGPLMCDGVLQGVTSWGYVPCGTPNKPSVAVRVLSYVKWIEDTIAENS

human C1r, activated = target: T3, human C1r, activated (Homo sapiens, UniProt P00736)
T3 sequence (P00736 18-463 limits assumed): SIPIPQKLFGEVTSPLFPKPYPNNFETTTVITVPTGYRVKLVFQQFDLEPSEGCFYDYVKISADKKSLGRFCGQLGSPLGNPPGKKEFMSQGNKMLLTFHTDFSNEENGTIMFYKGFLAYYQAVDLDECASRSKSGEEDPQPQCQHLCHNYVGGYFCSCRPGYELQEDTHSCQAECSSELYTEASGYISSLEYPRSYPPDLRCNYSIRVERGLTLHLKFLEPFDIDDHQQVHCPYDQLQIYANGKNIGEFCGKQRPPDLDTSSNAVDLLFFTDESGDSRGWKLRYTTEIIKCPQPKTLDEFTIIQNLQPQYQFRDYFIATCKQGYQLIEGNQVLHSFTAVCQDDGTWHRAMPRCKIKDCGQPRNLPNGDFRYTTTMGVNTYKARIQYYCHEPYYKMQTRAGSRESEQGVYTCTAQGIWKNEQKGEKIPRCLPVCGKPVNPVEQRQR
T3 sequence (P00736 464-705 limits assumed): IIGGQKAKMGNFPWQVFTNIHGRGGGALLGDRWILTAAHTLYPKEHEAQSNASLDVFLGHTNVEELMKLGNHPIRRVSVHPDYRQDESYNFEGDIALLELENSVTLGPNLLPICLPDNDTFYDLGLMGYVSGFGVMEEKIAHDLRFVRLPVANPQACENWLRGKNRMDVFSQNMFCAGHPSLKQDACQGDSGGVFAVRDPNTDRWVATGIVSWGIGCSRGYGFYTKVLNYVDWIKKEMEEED

human plasma thrombin = target: T4, human plasma thrombin (Homo sapiens, UniProt P00734)
T4 construct: human plasma thrombin; from tissue; host or cells: plasma (from the name only)

human plasma factor XIa = target: T5, human plasma factor XIa (Homo sapiens, UniProt P03951)
T5 construct: human plasma factor XIa; from tissue; host or cells: plasma (from the name only)
T5 sequence (P03951 19-387 limits assumed): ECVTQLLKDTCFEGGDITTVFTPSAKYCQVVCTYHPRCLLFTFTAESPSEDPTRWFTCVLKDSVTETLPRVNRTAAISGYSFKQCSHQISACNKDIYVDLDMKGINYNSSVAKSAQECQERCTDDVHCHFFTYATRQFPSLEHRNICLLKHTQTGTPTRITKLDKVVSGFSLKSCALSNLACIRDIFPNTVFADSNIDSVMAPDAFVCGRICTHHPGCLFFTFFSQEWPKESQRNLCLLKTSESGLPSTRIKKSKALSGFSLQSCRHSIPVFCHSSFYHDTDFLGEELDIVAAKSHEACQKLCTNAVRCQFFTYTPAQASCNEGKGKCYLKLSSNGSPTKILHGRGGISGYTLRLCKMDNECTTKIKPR
T5 sequence (P03951 388-625 limits assumed): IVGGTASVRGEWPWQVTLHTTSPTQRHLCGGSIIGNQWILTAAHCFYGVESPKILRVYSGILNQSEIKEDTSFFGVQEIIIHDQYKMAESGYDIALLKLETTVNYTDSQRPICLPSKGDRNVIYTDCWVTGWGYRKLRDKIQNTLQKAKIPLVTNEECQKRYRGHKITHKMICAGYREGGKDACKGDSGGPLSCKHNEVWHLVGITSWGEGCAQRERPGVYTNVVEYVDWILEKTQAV

human C1s, activated = target: T6, human C1s, activated (Homo sapiens, UniProt P09871)
T6 sequence (P09871 16-437 limits assumed): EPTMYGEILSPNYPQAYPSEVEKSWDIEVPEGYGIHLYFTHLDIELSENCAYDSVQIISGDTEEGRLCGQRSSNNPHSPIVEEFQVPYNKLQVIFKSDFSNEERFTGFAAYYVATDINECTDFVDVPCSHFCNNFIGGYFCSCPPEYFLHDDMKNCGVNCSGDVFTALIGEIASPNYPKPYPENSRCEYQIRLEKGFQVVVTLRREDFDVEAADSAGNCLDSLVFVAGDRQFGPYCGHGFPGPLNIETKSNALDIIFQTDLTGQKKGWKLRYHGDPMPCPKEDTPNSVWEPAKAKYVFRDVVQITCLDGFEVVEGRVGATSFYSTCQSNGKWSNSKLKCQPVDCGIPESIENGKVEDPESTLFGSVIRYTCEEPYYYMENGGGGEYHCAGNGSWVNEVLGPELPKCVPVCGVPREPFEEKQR
T6 sequence (P09871 438-688 limits assumed): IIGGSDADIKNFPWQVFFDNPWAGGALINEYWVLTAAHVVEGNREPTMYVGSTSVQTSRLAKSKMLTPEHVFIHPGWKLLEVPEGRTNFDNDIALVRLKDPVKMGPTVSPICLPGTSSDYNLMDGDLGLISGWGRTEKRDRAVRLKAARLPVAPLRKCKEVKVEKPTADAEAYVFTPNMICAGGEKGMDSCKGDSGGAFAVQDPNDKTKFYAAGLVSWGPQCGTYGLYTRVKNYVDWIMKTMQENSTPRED

[1] = target: T7, porcine pancreatic kallikrein (Sus scrofa, UniProt P00752)
T7 construct: from tissue; host or cells: pancreas (from the name only)
T7 sequence (P00752 8-246): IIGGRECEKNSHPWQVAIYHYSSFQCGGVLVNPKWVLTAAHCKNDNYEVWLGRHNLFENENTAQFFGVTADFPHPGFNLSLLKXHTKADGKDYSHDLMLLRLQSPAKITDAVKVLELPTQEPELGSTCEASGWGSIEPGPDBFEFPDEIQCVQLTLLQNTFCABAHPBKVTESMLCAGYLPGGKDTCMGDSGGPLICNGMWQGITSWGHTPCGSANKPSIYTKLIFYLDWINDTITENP

[2] = target: T8, human neutrophil elastase (Homo sapiens, UniProt P08246)
T8 sequence (P08246 30-267): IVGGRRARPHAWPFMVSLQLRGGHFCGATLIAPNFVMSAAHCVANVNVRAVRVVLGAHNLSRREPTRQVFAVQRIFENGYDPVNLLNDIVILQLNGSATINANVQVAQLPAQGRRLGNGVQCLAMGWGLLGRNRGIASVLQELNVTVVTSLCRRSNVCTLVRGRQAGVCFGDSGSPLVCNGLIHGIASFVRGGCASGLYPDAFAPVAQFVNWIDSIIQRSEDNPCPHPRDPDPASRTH

human plasma factor XIIa = target: human plasma factor XIIa
human plasma factor XIIa, sequence (P00748 373-615 limits assumed): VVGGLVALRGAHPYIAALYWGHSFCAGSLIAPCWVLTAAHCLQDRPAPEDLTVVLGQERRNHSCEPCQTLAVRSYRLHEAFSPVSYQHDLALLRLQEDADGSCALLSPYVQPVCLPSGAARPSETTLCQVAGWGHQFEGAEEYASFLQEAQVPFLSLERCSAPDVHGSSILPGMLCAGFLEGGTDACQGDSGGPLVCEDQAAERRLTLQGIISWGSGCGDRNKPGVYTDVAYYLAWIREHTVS

T1 sequence (P00747 97-580 limits assumed): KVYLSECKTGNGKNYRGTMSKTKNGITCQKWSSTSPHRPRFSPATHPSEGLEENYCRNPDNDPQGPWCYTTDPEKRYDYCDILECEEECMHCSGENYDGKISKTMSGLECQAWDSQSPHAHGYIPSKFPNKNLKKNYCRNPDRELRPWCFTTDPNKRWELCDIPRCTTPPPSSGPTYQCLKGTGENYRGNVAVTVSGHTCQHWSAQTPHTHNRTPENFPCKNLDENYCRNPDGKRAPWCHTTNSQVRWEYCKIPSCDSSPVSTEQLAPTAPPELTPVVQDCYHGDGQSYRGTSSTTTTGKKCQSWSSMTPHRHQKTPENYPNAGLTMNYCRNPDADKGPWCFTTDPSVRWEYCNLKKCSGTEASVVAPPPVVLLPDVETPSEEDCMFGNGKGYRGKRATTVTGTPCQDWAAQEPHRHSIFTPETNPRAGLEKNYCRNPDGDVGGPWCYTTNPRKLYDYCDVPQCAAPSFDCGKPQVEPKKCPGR
T1 sequence (P00747 581-810 limits assumed): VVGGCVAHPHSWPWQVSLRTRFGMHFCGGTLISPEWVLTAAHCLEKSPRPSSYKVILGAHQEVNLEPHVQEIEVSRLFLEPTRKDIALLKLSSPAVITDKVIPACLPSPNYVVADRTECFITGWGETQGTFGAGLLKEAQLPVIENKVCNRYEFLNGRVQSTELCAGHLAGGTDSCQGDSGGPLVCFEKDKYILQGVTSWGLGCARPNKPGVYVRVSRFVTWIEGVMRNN

Substance	pKi (human plasmin)	pKi (human urine kallikrein)	pKi (human C1r, activated)	pKi (human plasma thrombin)	pKi (human plasma factor XIa)	pKi (human C1s, activated)	pKi [1]	pKi [2]	pKi (human plasma factor XIIa)
EAMHSFCAFKADDGPCRAAHPRWFFNIFTRQCEEFIYGGCEGNQNRFESLEECKKMCTRD (disulfide 7-57, 16-40, 32-53) [PEP-1]	6.85	< 4.00	< 3.70	< 4.70	8.00	< 4.70	4.57	< 4.70	–
aprotinin [reference compound]	–	–	–	< 4.00	–	< 4.00	–	–	< 4.00
